Data published in PubChem BioAssay (NCI).
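In this assay, cells in 96-well plates receive the compound at five concentrations for 48 hours. Endpoints are linearly interpolated between the surrounding concentrations. TGI: total growth inhibition.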

Assays:
Test in all cases: inhibition of tumour cell growth, NCI panel, 48 h
MCF7 breast = tested on: MCF7 breast
MDA-MB-435 = tested on: MDA-MB-435
SK-MEL-28 melanoma = tested on: SK-MEL-28 melanoma
A498 renal = tested on: A498 renal
COLO 205 colon = tested on: COLO 205 colon
TK-10 renal = tested on: TK-10 renal
CAKI-1 renal = tested on: CAKI-1 renal
SW-620 colon = tested on: SW-620 colon
MDA-N = tested on: MDA-N
ACHN renal = tested on: ACHN renal
UO-31 renal = tested on: UO-31 renal
NCI-H23 lung = tested on: NCI-H23 lung
K-562 leukemia = tested on: K-562 leukemia
SF-539 CNS = tested on: SF-539 CNS
EKVX NSCLC = tested on: EKVX NSCLC
NCI/ADR-RES ovarian = tested on: NCI/ADR-RES ovarian
SK-MEL-2 melanoma = tested on: SK-MEL-2 melanoma
HCT-15 colon = tested on: HCT-15 colon
LOX IMVI melanoma = tested on: LOX IMVI melanoma
A549 NSCLC = tested on: A549 NSCLC
HT29 colon = tested on: HT29 colon
SNB-75 CNS = tested on: SNB-75 CNS
U251 CNS = tested on: U251 CNS
OVCAR-8 ovarian = tested on: OVCAR-8 ovarian
SK-MEL-5 melanoma = tested on: SK-MEL-5 melanoma
OVCAR-4 ovarian = tested on: OVCAR-4 ovarian
OVCAR-5 ovarian = tested on: OVCAR-5 ovarian
CCRF-CEM leukemia = tested on: CCRF-CEM leukemia
UACC-257 melanoma = tested on: UACC-257 melanoma
MOLT-4 leukemia = tested on: MOLT-4 leukemia
DU-145 prostate = tested on: DU-145 prostate
T-47D breast = tested on: T-47D breast
HOP-92 NSCLC = tested on: HOP-92 NSCLC
RPMI-8226 leukemia = tested on: RPMI-8226 leukemia
NCI-H522 lung = tested on: NCI-H522 lung
MDA-MB-231 breast = tested on: MDA-MB-231 breast
SF-268 CNS = tested on: SF-268 CNS
MALME-3M melanoma = tested on: MALME-3M melanoma
NCI-H460 lung = tested on: NCI-H460 lung
HCC-2998 colon = tested on: HCC-2998 colon
SNB-19 CNS = tested on: SNB-19 CNS
SN12C renal = tested on: SN12C renal
HS 578T breast = tested on: HS 578T breast
RXF 393 renal = tested on: RXF 393 renal
PC-3 prostate = tested on: PC-3 prostate
KM12 colon = tested on: KM12 colon
OVCAR-3 ovarian = tested on: OVCAR-3 ovarian
HOP-62 NSCLC = tested on: HOP-62 NSCLC
IGROV1 ovarian = tested on: IGROV1 ovarian
M14 melanoma = tested on: M14 melanoma
BT-549 breast = tested on: BT-549 breast

Measured: TGI

COC(=O)c1cn(CC(O)CCl)nn1 (stereo unspecified)
> 100 µM: all assays above
